Data set [1] concerns fluid percussion brain injury. The data set can be described thus: Lateral fluid percussion injury (FPI) model of traumatic brain injury. It is filed as in vivo. Conditions: rats. The method, then: Compound A was tested for efficacy in an animal model of traumatic brain injury. Specifically, Compound A was evaluated in the lateral fluid percussion injury (FPI) model developed by McIntosh (McIntosh T. K., et. al (1989), Neuroscience 28:233-244). This model replicates many of the pathological aspects found in humans who have sustained traumatic brain injury. Furthermore, the damage caused by the injury is sensitive to pharmacological intervention, and thus provides a robust method for preclinical efficacy testing. In this model, animals are subjected to a fluid percussion brain injury, and are then given Compound A shortly thereafter. At specific time points, animals are evaluated using outcome measures that assess cognitive and locomoter deficits that are consequences of the injury. In addition, following behavioral analysis, animals are sacrificed and their brains assessed with respect to a variety of histopathological parameters.
For these studies, experimental parameters are used that were previously developed by Dr. Tracy McIntosh, Director of the University of Pennsylvania Head Injury Center. In these studies, male rats (350-400 g) are used for injuries. All animals are injured at a moderate/severe injury level (2.5-3.0 atm) via a craniotomy positioned over the left parietal cortex centered between Bregma and Lambda. […] Following behavioral testing, these animals are sacrificed, and their brains are analyzed for tissue damage (cortical volume loss, and neuronal cell counts), and other histopathological readouts.
The ability of Compound A to restore cognitive deficits in spatial memory and learning is evaluated at 48 hrs post injury using the Morris watermaze paradigm (Smith D. H. et al. (1991), J. Neurotrauma 8(4): 259-269; Schmidt, R. H. et al. (1999), J. Neurotrauma 16(12): 1139-1147). […] In the learning paradigm, the animals are trained to find the platform, and the reduction in latency with increasing number of training sessions is recorded. […]

Data set [2] in a line: Solubility of Compound A in dosing vehicles. The class given is physicochemical. Here is the method: PEG-200 formulation for i.p. administration of Compound A: PEG-200 was diluted in deionized destilled water to give a final concentration of 75% (volume/volume). Compound A was weighed to yield a final concentration of 10 mg/ml in 75% PEG-200 vehicle and sonicated for 12×30 seconds with 5 second intervals on ice to generate a Compound A suspension. 100 μL of either Compound A suspension or control vehicle (75% PEG-200) per 20 grams of mice (body weight) was administered via i.p., thus yielding a dose of 50 mg/kg (body weight).
Cremophor EL/alcohol/saline formulation for i.p. administration of Compound A: 40 mg/ml, 20 mg/ml or 10 mg/ml of Compound A was dissolved in Cremophor EL/alcohol (90:10) (volume:volume), respectively, by brief sonication on ice, then freshly diluted 10-fold in saline solution (9% Cremophor EL; 1% ETOH and 90% saline) to give a final concentration of 4 mg/ml, 2 mg/ml and 1 mg/ml, respectively, before injection. 100 μL of Compound A solution at a concentration of […] was administered via i.p. to mice (per 20 grams of body weight), thus yielding a dose of 20 mg/kg (body weight), 10 mg/kg (body weight), and 5 mg/kg (body weight), respectively. The control vehicle was 9% Cremophor EL/1% ETOH/90% saline. […]

The nature of data set [3]: PK parameter estimates, 30 mg/kg po in 1% methyl cellulose. The class given is in vivo, rats. The source says:
The time course of plasma concentration of compound N is depicted in FIG. 1 as well.

The subject of data set [4] is neurofilament (nerve fiber density). Kind of data set: Immunohistochemistry of neurofilament on transverse spinal cord sections. The class given is in vivo. Conditions: rats after spinal cord injury; anti-neurofilament staining; sections rostral and caudal to epicenter. The method, then: Compound A was tested in both the rat dorsal hemisection (Guth, L. et al. (1980), J. Neurosurgery 52: 73-86) and contusion models (Scheff, S. W. (2003), J. Neurotrauma 20: 179-193) for evaluation of efficacy. These models are widely used in the field of spinal cord injury and replicate many of the pathological aspects found in humans who have sustained a spinal cord injury. Rats were subjected to an experimental spinal cord injury at T8, and were given Compound A shortly thereafter. Behavioral tests to assess the locomotion deficits were performed after the lesion. At the end of the experiment, animals were sacrificed and the spinal cord was collected for histopathological analysis. […] Histological assessment of the tissue at the site of injury was also made in both the drug treated and untreated group. In particular, subsequent to the behavioral measurement, spinal cord tissue from each animal was obtained and serial transverse tissue sections were stained with either anti-neurofilament antibody or antibodies specific for the inflammatory markers, tumor necrosis factor alpha (TNFα) and for the inducible form of nitric oxide synthetase (iNOS), followed by incubation with Alexa Fluor®-conjugated secondary antibodies.

Setting [5] is: rat, plasma, rats, 30 mg/kg po in 1% methyl cellulose, n = 3.

With `CC(=O)Nc1ccc(C(=O)NC(C)(C)C)cc1` [Compound A, N-tert-butyl-4-acetamidobenzamide], the “effects on the other locomotor tests, beam balance and rotating pole (in words)” value in data set [1] (Study Number 1, 20 mg/kg/BID i.p. 7 days, 75% PEG 200) was “limited”. Moreover, the “effects on the composite neuroscore (in words)” value in data set [1] (Study Number 1, 20 mg/kg/BID i.p. 7 days, 75% PEG 200, acute and long term) is “robust acute and long term effects”. In data set [1] (Study Number 2, 10 and 20 mg/kg/BID i.p. 5 days, 50% PEG 400 and 25% ethanol), the “effects in acute or long term locomotor or cognitive tests (in words)” value was “No effects of the compound were observed”. For the same compound, the “solubility in 9% Cremophor EL, 1% ETOH and 90% saline” value in data set [2] (9% Cremophor EL, 1% ETOH, 90% saline vehicle) was “quite soluble”. The “solubility in 75% PEG-200” value in data set [2] (75% PEG-200 vehicle) is “not soluble”. The “bioavailability (in words)” value in data set [3] (additional series of bioavailability experiments) is on record as “excellent bioavailability”. In data set [3] (setting [5]), the total exposure AUC(0-inf) was 745 µg·h/mL, the Cmax was 34000 ng/mL and the Tmax is 8 h. Moreover, the half-life in data set [3] (rat, plasma, rats, 30 mg/kg po in 1% methyl cellulose, n = 3, read-out: Elim.t1/2 (converted)) is 11 h. In addition, the “nerve fiber density in spinal cord tissue vs vehicle control” value in data set [4] was “significantly higher nerve fiber density”.

As a reminder, the AUC(0-inf) is total exposure, with the tail of the curve extrapolated. The Cmax is the highest concentration seen after dosing. What is called Tmax is the time from dosing to the highest level.

The record behind these values is US20040167226A1, “Methods for the treatment of pain and traumatic injury using benzamides and compositions containing the same” (priority 2002, published 2004).
